From ChEMBL document CHEMBL3885861, “Open TG-GATES”

Organism: Rattus norvegicus
Experiment: Open TG-GATES - Regimen: Daily Repeat
Format: toxicity, organism-based, Sprague-Dawley
Design: regimen Daily Repeat, gender Male, age 6 weeks
Conditions: in vivo, po, route gavage; for APTT / Bas / Eos / Fbg / Hb / Ht / Lym / MCH / MCHC / MCV / Mono / Neu / PT / Plat / RBC / Ret / WBC: tissue Blood; for KIDNEY_L / KIDNEY_R / KIDNEY_TOTAL: tissue Kidney; for LIVER: tissue Liver; for A/G / ALP / ALT / AST / BUN / CRE / Ca / Cl / DBIL / GLC / IP / K / LDH / Na / PL / RALB / TBIL / TC / TG / TP / gamma-GTP: tissue Plasma
[1] = 0 mg/kg, 72 h, dose level Control, time 3 day
[2] = 0 mg/kg, […], dose level Control, time 7 day
[3] = 0 mg/kg, […], dose level Control, time 14 day
[4] = 0 mg/kg, […], dose level Control, time 28 day
[5] = 10 mg/kg, 72 h, dose level Low, time 3 day
[6] = 10 mg/kg, […], dose level Low, time 7 day
[7] = 10 mg/kg, […], dose level Low, time 14 day
[8] = 10 mg/kg, […], dose level Low, time 28 day

## CCC1(c2ccccc2)C(=O)NC(=O)NC1=O [PHENOBARBITAL]
[1]
  TERMINAL_BW: 222.1 g
  APTT: 15.6 s
  Bas: 0%
  Eos: 0.6%
  Fbg: 225 mg/dL
  Hb: 13.2 g/dL
  Ht: 39.4%
  Lym: 76.8%
  MCH: 22.4 pg
  MCHC: 33.6%
  MCV: 66.9 fL
  Mono: 7.4%
  Neu: 15.2%
  PT: 12 s
  Plat: 126.6 x10_4/uL
  RBC: 589.6 x10_4/ul
  Ret: 7.7%
  WBC: 129.8 x10_2/uL
  KIDNEY_L: 0.9 g
  KIDNEY_R: 1 g
  KIDNEY_TOTAL: 1.9 g
  LIVER: 11.2 g
  A/G: 1.6
  ALP: 912.8 IU/L
  ALT: 34 IU/L
  AST: 61.4 IU/L
  BUN: 16 mg/dL
  CRE: 0.5 mg/dL
  Ca: 10.8 mg/dL
  Cl: 106.6 meq/L
  DBIL: 0.01 mg/dL
  GLC: 201.8 mg/dL
  IP: 7.9 mg/dL
  K: 4.9 meq/L
  LDH: 84.2 IU/L
  Na: 139.4 meq/L
  PL: 158.6 mg/dL
  RALB: 3.6 g/dL
  TBIL: 0.4 mg/dL
  TC: 80.2 mg/dL
  TG: 142.6 mg/dL
  TP: 5.9 g/dL
  gamma-GTP: 1.8 IU/L
[2]
  TERMINAL_BW: 254.1 g
  APTT: 15.9 s
  Bas: 0%
  Eos: 0.8%
  Fbg: 224.8 mg/dL
  Hb: 14.2 g/dL
  Ht: 42.7%
  Lym: 82.2%
  MCH: 21.9 pg
  MCHC: 33.4%
  MCV: 65.5 fL
  Mono: 6.8%
  Neu: 10.4%
  PT: 11.9 s
  Plat: 110.9 x10_4/uL
  RBC: 652 x10_4/ul
  Ret: 6.1%
  WBC: 125.6 x10_2/uL
  KIDNEY_L: 1 g
  KIDNEY_R: 1 g
  KIDNEY_TOTAL: 2.1 g
  LIVER: 12.4 g
  A/G: 1.5
  ALP: 1114.2 IU/L
  ALT: 32 IU/L
  AST: 62 IU/L
  BUN: 19.2 mg/dL
  CRE: 0.5 mg/dL
  Ca: 10.9 mg/dL
  Cl: 104.6 meq/L
  DBIL: 0.054 mg/dL
  GLC: 206.4 mg/dL
  IP: 7.9 mg/dL
  K: 4.9 meq/L
  LDH: 99.8 IU/L
  Na: 139.4 meq/L
  PL: 158.2 mg/dL
  RALB: 3.5 g/dL
  TBIL: 0.3 mg/dL
  TC: 73 mg/dL
  TG: 150 mg/dL
  TP: 5.9 g/dL
  gamma-GTP: 1.4 IU/L
[3]
  TERMINAL_BW: 296 g
  APTT: 16.5 s
  Bas: 0%
  Eos: 0.4%
  Fbg: 241.4 mg/dL
  Hb: 14.7 g/dL
  Ht: 44.1%
  Lym: 88.2%
  MCH: 20.6 pg
  MCHC: 33.4%
  MCV: 61.9 fL
  Mono: 3.6%
  Neu: 7.8%
  PT: 11.6 s
  Plat: 113.2 x10_4/uL
  RBC: 713.2 x10_4/ul
  Ret: 5.1%
  WBC: 153.7 x10_2/uL
  KIDNEY_L: 1.1 g
  KIDNEY_R: 1.1 g
  KIDNEY_TOTAL: 2.2 g
  LIVER: 13.5 g
  A/G: 1.5
  ALP: 764.6 IU/L
  ALT: 31.4 IU/L
  AST: 63.4 IU/L
  BUN: 19 mg/dL
  CRE: 0.6 mg/dL
  Ca: 10.6 mg/dL
  Cl: 105.4 meq/L
  DBIL: 0.002 mg/dL
  GLC: 207.8 mg/dL
  IP: 8.4 mg/dL
  K: 4.5 meq/L
  LDH: 102.4 IU/L
  Na: 141.4 meq/L
  PL: 159.4 mg/dL
  RALB: 3.8 g/dL
  TBIL: 0.2 mg/dL
  TC: 75.4 mg/dL
  TG: 138.6 mg/dL
  TP: 6.3 g/dL
  gamma-GTP: 0.8 IU/L
[4]
  TERMINAL_BW: 396.2 g
  APTT: 17 s
  Bas: 0%
  Eos: 0.8%
  Fbg: 236 mg/dL
  Hb: 14.8 g/dL
  Ht: 44.6%
  Lym: 84.4%
  MCH: 19.3 pg
  MCHC: 33.2%
  MCV: 58.2 fL
  Mono: 5.6%
  Neu: 9.4%
  PT: 12 s
  Plat: 109 x10_4/uL
  RBC: 766 x10_4/ul
  Ret: 2.6%
  WBC: 129.1 x10_2/uL
  KIDNEY_L: 1.4 g
  KIDNEY_R: 1.4 g
  KIDNEY_TOTAL: 2.8 g
  LIVER: 16.7 g
  A/G: 1.5
  ALP: 596.8 IU/L
  ALT: 29.6 IU/L
  AST: 56.2 IU/L
  BUN: 20 mg/dL
  CRE: 0.4 mg/dL
  Ca: 10.4 mg/dL
  Cl: 106.4 meq/L
  DBIL: 0.006 mg/dL
  GLC: 201 mg/dL
  IP: 8 mg/dL
  K: 4.5 meq/L
  LDH: 86 IU/L
  Na: 140.4 meq/L
  PL: 165.8 mg/dL
  RALB: 3.9 g/dL
  TBIL: 0.3 mg/dL
  TC: 76.4 mg/dL
  TG: 213.2 mg/dL
  TP: 6.5 g/dL
  gamma-GTP: 1.4 IU/L
[5]
  TERMINAL_BW: 224.1 g
  APTT: 15.6 s
  Bas: 0%
  Eos: 1%
  Fbg: 226.8 mg/dL
  Hb: 13.3 g/dL
  Ht: 39.6%
  Lym: 71.6%
  MCH: 22 pg
  MCHC: 33.6%
  MCV: 65.5 fL
  Mono: 11.4%
  Neu: 16.4%
  PT: 11.9 s
  Plat: 126.7 x10_4/uL
  RBC: 605.2 x10_4/ul
  Ret: 7.9%
  WBC: 126 x10_2/uL
  KIDNEY_L: 1 g
  KIDNEY_R: 1 g
  KIDNEY_TOTAL: 2 g
  LIVER: 12 g
  A/G: 1.5
  ALP: 757.2 IU/L
  ALT: 34.6 IU/L
  AST: 61.6 IU/L
  BUN: 15.2 mg/dL
  CRE: 0.5 mg/dL
  Ca: 10.6 mg/dL
  Cl: 106.6 meq/L
  DBIL: 0.018 mg/dL
  GLC: 197.2 mg/dL
  IP: 8.3 mg/dL
  K: 4.8 meq/L
  LDH: 106.8 IU/L
  Na: 139 meq/L
  PL: 147.8 mg/dL
  RALB: 3.5 g/dL
  TBIL: 0.3 mg/dL
  TC: 83.4 mg/dL
  TG: 104.8 mg/dL
  TP: 5.8 g/dL
  gamma-GTP: 1.6 IU/L
[6]
  TERMINAL_BW: 253.6 g
  APTT: 16.3 s
  Bas: 0%
  Eos: 1%
  Fbg: 236 mg/dL
  Hb: 13.8 g/dL
  Ht: 41.2%
  Lym: 80.6%
  MCH: 21.8 pg
  MCHC: 33.4%
  MCV: 65.2 fL
  Mono: 3%
  Neu: 15.4%
  PT: 11.6 s
  Plat: 113.9 x10_4/uL
  RBC: 632.6 x10_4/ul
  Ret: 6.6%
  WBC: 95.6 x10_2/uL
  KIDNEY_L: 1.1 g
  KIDNEY_R: 1.1 g
  KIDNEY_TOTAL: 2.1 g
  LIVER: 13.7 g
  A/G: 1.5
  ALP: 686.4 IU/L
  ALT: 28 IU/L
  AST: 57 IU/L
  BUN: 18.4 mg/dL
  CRE: 0.6 mg/dL
  Ca: 10.9 mg/dL
  Cl: 105.2 meq/L
  DBIL: 0.034 mg/dL
  GLC: 210 mg/dL
  IP: 8.5 mg/dL
  K: 4.7 meq/L
  LDH: 86.8 IU/L
  Na: 139.6 meq/L
  PL: 161.2 mg/dL
  RALB: 3.6 g/dL
  TBIL: 0.4 mg/dL
  TC: 82.4 mg/dL
  TG: 129.2 mg/dL
  TP: 6 g/dL
  gamma-GTP: 1.2 IU/L
[7]
  TERMINAL_BW: 311.1 g
  APTT: 16.6 s
  Bas: 0%
  Eos: 0.2%
  Fbg: 234.6 mg/dL
  Hb: 15 g/dL
  Ht: 45.1%
  Lym: 84.6%
  MCH: 20.6 pg
  MCHC: 33.3%
  MCV: 61.7 fL
  Mono: 5.8%
  Neu: 9.6%
  PT: 11.4 s
  Plat: 114.1 x10_4/uL
  RBC: 731.2 x10_4/ul
  Ret: 5%
  WBC: 141.4 x10_2/uL
  KIDNEY_L: 1.2 g
  KIDNEY_R: 1.2 g
  KIDNEY_TOTAL: 2.3 g
  LIVER: 15.6 g
  A/G: 1.6
  ALP: 858.8 IU/L
  ALT: 33.8 IU/L
  AST: 63.2 IU/L
  BUN: 17.8 mg/dL
  CRE: 0.6 mg/dL
  Ca: 11.3 mg/dL
  Cl: 106 meq/L
  DBIL: 0.004 mg/dL
  GLC: 193.8 mg/dL
  IP: 9.1 mg/dL
  K: 4.7 meq/L
  LDH: 100 IU/L
  Na: 141.6 meq/L
  PL: 162.8 mg/dL
  RALB: 4 g/dL
  TBIL: 0.2 mg/dL
  TC: 83.8 mg/dL
  TG: 127.6 mg/dL
  TP: 6.6 g/dL
  gamma-GTP: 1 IU/L
[8]
  TERMINAL_BW: 391.1 g
  APTT: 17.6 s
  Bas: 0%
  Eos: 1%
  Fbg: 226.6 mg/dL
  Hb: 15 g/dL
  Ht: 43.9%
  Lym: 86.6%
  MCH: 20.1 pg
  MCHC: 34.1%
  MCV: 58.9 fL
  Mono: 3.8%
  Neu: 8.8%
  PT: 12.1 s
  Plat: 97.5 x10_4/uL
  RBC: 746 x10_4/ul
  Ret: 2.9%
  WBC: 114.8 x10_2/uL
  KIDNEY_L: 1.4 g
  KIDNEY_R: 1.3 g
  KIDNEY_TOTAL: 2.7 g
  LIVER: 16.8 g
  A/G: 1.6
  ALP: 707.4 IU/L
  ALT: 29.6 IU/L
  AST: 56.2 IU/L
  BUN: 21.6 mg/dL
  CRE: 0.3 mg/dL
  Ca: 10.3 mg/dL
  Cl: 108.4 meq/L
  DBIL: 0.026 mg/dL
  GLC: 195.8 mg/dL
  IP: 7.4 mg/dL
  K: 5 meq/L
  LDH: 84.2 IU/L
  Na: 139.8 meq/L
  PL: 148 mg/dL
  RALB: 3.9 g/dL
  TBIL: 0.4 mg/dL
  TC: 69.6 mg/dL
  TG: 164.4 mg/dL
  TP: 6.3 g/dL
  gamma-GTP: 1.4 IU/L
